{"source": "patent US8772268B2", "about": "“Bisphosphonamidate prodrugs and uses thereof” (The Johns Hopkins University, priority 2010, dated 2014)", "key": {"SN12C": {"test_system": "SN12C", "experiment": "NCI-60 DTP Human Tumor Cell Line Screen", "type": "cell-based", "settings": "Renal Cancer, 48 h"}, "A549 NSCLC cells [1]": {"test_system": "A549 NSCLC cells", "experiment": "Cell cycle analysis (PI and flow cytometry)", "type": "cell-based", "settings": "A549, 0, 3, or 10 μM for 72 h, nocodazole for the last 24 h", "protocol": "PI and flow cytometry analysis were performed to study the effects of prodrug 14 on cell cycle.\nBriefly, A549 NSCLC cells were plated at 6.7×10^4 cells per well in flat bottom 6-well plates. Cells were dosed as described above. At 24, 48 or 72 hours following drug treatment, the media was collected, and the cells were washed with 1 mL PBS. Each well was trypsinized with 600 μL trypsin for 3-5 min. The trypsin reaction was quenched with an equal volume of media. All supernatants and washes were combined and centrifuged at 1,500 rpm for 5 min. Supernantant was decanted, and the cells were washed with 2 mL 1% FBS/PBS. Cells were centrifuged at 1,500 rpm for 5 min, and the supernatant was decanted. Cells were resuspended in 1 mL cold PBS, fixed in cold 70% ethanol and incubated at 4° C. for at least 30 min. Cells were centrifuged at 1,500 rpm for 5 min, washed with 1% FBS/PBS, and resuspended in 1 mL of 2:1 1% FBS in PBS/phosphate citric acid buffer (pH 7.8). Cells were incubated at room temperature for 5 min, then spun at 1,500 rpm for 5 min. The supernatant was decanted, the cells were resuspended and incubated in 300 μL PBS/FBS/PURNase solution (10 μg/mL propidium iodide and 3 K.U. of RNase A) for 30 mM at 37° C. Flow cytometry was performed to analyze DNA content, collecting ten thousand PI positive gated events per sample."}, "MALME-3M": {"test_system": "MALME-3M", "experiment": "NCI-60 DTP Human Tumor Cell Line Screen", "type": "cell-based", "settings": "Melanoma, 48 h"}, "BT-549": {"test_system": "BT-549", "experiment": "NCI-60 DTP Human Tumor Cell Line Screen", "type": "cell-based", "settings": "BT-549, Breast Cancer, 48 h"}, "SF-539": {"test_system": "SF-539", "experiment": "NCI-60 DTP Human Tumor Cell Line Screen", "type": "cell-based", "settings": "SF-539, CNS Cancer, 48 h"}, "EKVX": {"test_system": "EKVX", "experiment": "NCI-60 DTP Human Tumor Cell Line Screen", "type": "cell-based", "settings": "Non-Small Cell Lung Cancer, 48 h"}, "RXF 393": {"test_system": "RXF 393", "experiment": "NCI-60 DTP Human Tumor Cell Line Screen", "type": "cell-based", "settings": "RXF 393, Renal Cancer, 48 h"}, "A549 NSCLC cells [2]": {"test_system": "A549 NSCLC cells", "experiment": "MTS cell proliferation assay, A549", "type": "cell-based", "settings": "for IC50: A549, MTS, read-out: IC50 (decreased cell proliferation by 50% compared to control)", "description": "Cell proliferation was determined using the CellTiter 96 Aqueous One Solution Cell Proliferation Assay MTS assay. A549 NSCLC cells were plated at 1.5×10^3 cells per well in flat bottom 96 well plates in 99 μL of media and allowed to adhere overnight. The drugs were serially diluted in 100% DMSO. For each drug treatment group, 1 μL of a 100× stock solution was added to each well for a final DMSO concentration of 1%. Cells were treated for 24, 48 or 72 hours. Cells were incubated with MTS dye (20 μL well^−1) for 40 min to 2 h. Absorbance at 490 nm was determined using a SpectraMax M2 (Molecular Devices) plate reader. The percent cell proliferation was calculated by converting the experimental absorbance to percentage of control, which was then plotted vs. drug concentration. The IC50 values were determined using a non-linear dose-response analysis in GraphPad Prism version 4.0. The IC50 is defined as the concentration of drug needed to cause a 50% decrease in proliferation compared to vehicle control. […]"}, "A549 NSCLC cells [3]": {"test_system": "A549 NSCLC cells", "experiment": "Trypan blue cell count assay, A549", "settings": "for EC50: read-out: EC50 (decreased cell number by 50% compared to control), A549, trypan blue", "description": "A549 NSCLC cells were plated at 1.7×10^4 cells per well in flat bottom 12-well plates. Cells were dosed as described above. At 24, 48 or 72 hours following drug treatment, the media was collected, and the cells were washed with 200 μL PBS. Each well was trypsinized with 200 μL trypsin for 3-5 min. The trypsin reaction was quenched with an equal volume of media. All supernatants and washes were combined and spun at 1,500 rpm for 5 min. Supernatant was decanted, and the cells were resuspended in 200 μL media. The cells were diluted 1:1 in 0.04% trypan blue and counted using a cytometer. The absolute number of cells was determined at each drug concentration. The cell number for each concentration was converted to percent of control for each time point, and plotted using GraphPad Prism 4.0. The EC50 was calculated as the concentration of drug that caused a 50% decrease in number of cells compared to control.\nThe number of viable cells at each dose was determined at 0, 24, 48 and 72 hours following drug treatment and plotted as a percent of control (FIG. 6A)."}, "IGROV1": {"test_system": "IGROV1", "experiment": "NCI-60 DTP Human Tumor Cell Line Screen", "type": "cell-based", "settings": "IGROV1, Ovarian Cancer, 48 h"}, "MDA-MB-231/ATCC": {"test_system": "MDA-MB-231/ATCC", "experiment": "NCI-60 DTP Human Tumor Cell Line Screen", "type": "cell-based", "settings": "Breast Cancer, 48 h"}, "OVCAR-8": {"test_system": "OVCAR-8", "experiment": "NCI-60 DTP Human Tumor Cell Line Screen", "type": "cell-based", "settings": "OVCAR-8, Ovarian Cancer, 48 h"}, "HUVEC": {"test_system": "HUVEC", "experiment": "Sprouting assay on dextran beads (anti-angiogenic activity)", "type": "cell-based", "description": "This assay is an unpublished variation of the assay described (Microvascular Research 2003, 66, 102-112) performed by the Hans Hammers Lab at Johns Hopkins University. The assay described in the above reference is described below.\nHUVEC were mixed with dextran-coated Cytodex 3 microcarriers (Amersham Pharmacia Biotech, Piscataway, N.J.) at a concentration of 400 HUVEC per bead in 1 ml of EGM-2 medium (Clonetics, Walkersville, Md.). Beads with cells were shaken gently every 20 min for 4 h at 37° C. and 5% CO2. After incubating, beads with cells were transferred to a 25-cm^2 tissue culture flask (BD Biosciences, Bedford, Mass.) and left for 12-16 h in 5 ml of EGM-2 at 37° C. and 5% CO2. The following day, beads with cells were washed three times with 1 ml of EGM-2 and resuspended at a concentration of 200 cell-coated beads/ml in 2.5 mg/ml of fibrinogen (Sigma, St. Louis, Mo.) with or without 0.15 units/ml of aprotinin (Sigma) at a pH of 7.4. Five hundred microliters of fibrinogen/bead solution was added to 0.625 units of thrombin (Sigma) in one well of a 24-well tissue culture plate. […] Bead assays were monitored for 7 days. […]"}}, "note": "Entries after “also recorded” stand apart in the source; their conditions may differ. Read-outs that look alike come from different tables or passages of the source."}
{"smiles": "CN(CCCCCl)P(=O)(OCc1ccc([N+](=O)[O-])cc1)C(Cl)(Cl)P(=O)(OCc1ccc([N+](=O)[O-])cc1)N(C)CCCCCl", "note": "(stereo not drawn) [compound 14]", "values": [{"measurement": "Log10GI50", "setting": "SN12C", "result": "−5.42"}, {"measurement": "Log10LC50", "setting": "SN12C", "result": ">−4.00"}, {"measurement": "Log10TGI", "setting": "SN12C", "result": ">−4.00"}, {"measurement": "effect on cell cycle", "setting": "A549 NSCLC cells [1]", "result": "G1 cell cycle arrest; also recorded: accumulation of cells in G1 phase is evident"}, {"measurement": "Log10GI50", "setting": "MALME-3M", "result": "−5.39"}, {"measurement": "Log10LC50", "setting": "MALME-3M", "result": ">−4.00"}, {"measurement": "Log10TGI", "setting": "MALME-3M", "result": ">−4.00"}, {"measurement": "Log10GI50", "setting": "BT-549", "result": "−5.50"}, {"measurement": "Log10LC50", "setting": "BT-549", "result": ">−4.00"}, {"measurement": "Log10TGI", "setting": "BT-549", "result": "−5.03"}, {"measurement": "Log10GI50", "setting": "SF-539", "result": "−5.44"}, {"measurement": "Log10LC50", "setting": "SF-539", "result": ">−4.00"}, {"measurement": "Log10TGI", "setting": "SF-539", "result": ">−4.00"}, {"measurement": "Log10GI50", "setting": "EKVX", "result": "−5.50"}, {"measurement": "Log10LC50", "setting": "EKVX", "result": ">−4.00"}, {"measurement": "Log10TGI", "setting": "EKVX", "result": ">−4.00"}, {"measurement": "Log10GI50", "setting": "RXF 393", "result": "−5.50"}, {"measurement": "Log10LC50", "setting": "RXF 393", "result": ">−4.00"}, {"measurement": "Log10TGI", "setting": "RXF 393", "result": "−4.38"}, {"measurement": "growth inhibitory effect on A549 cells", "setting": "A549 NSCLC cells [2]; 48 and 72 h", "result": "complete growth inhibition"}, {"measurement": "growth inhibitory effect on A549 cells", "setting": "A549 NSCLC cells [2]; 24 h", "result": "partial growth inhibitory effect"}, {"measurement": "EC50", "setting": "A549 NSCLC cells [2]; A549 (NSCLC), MTS, table of Example 3", "result": 8, "unit": "µM"}, {"measurement": "IC50", "setting": "A549 NSCLC cells [2]; 24 h", "result": "7.6 ± 3", "unit": "µM"}, {"measurement": "IC50", "setting": "A549 NSCLC cells [2]; 48 h", "result": "5.2 ± 1", "unit": "µM"}, {"measurement": "IC50", "setting": "A549 NSCLC cells [2]; 72 h", "result": "4.4 ± 2", "unit": "µM"}, {"measurement": "new growth in fresh media without drug", "setting": "A549 NSCLC cells [3]; 72 h treatment with 30, 100 and 300 μM, then 48 h drug-free", "result": "No new growth was observed"}, {"measurement": "cell viability reduced by", "setting": "A549 NSCLC cells [3]; A549, 24 h, highest drug concentration tested", "result": 57, "unit": "%"}, {"measurement": "EC50 (trypan blue) fold higher than IC50 (MTS)", "setting": "A549 NSCLC cells [3]; A549, 48 h", "result": "~1.6", "unit": "fold"}, {"measurement": "viability of A549 cells, of control", "setting": "A549 NSCLC cells [3]; higher doses over 24 h", "result": "above 50%"}, {"measurement": "EC50", "setting": "A549 NSCLC cells [3]; 48 h", "result": "19 ± 4", "unit": "µM"}, {"measurement": "EC50", "setting": "A549 NSCLC cells [3]; 72 h", "result": "16 ± 1", "unit": "µM"}, {"measurement": "Log10GI50", "setting": "IGROV1", "result": "−5.39"}, {"measurement": "Log10LC50", "setting": "IGROV1", "result": ">−4.00"}, {"measurement": "Log10TGI", "setting": "IGROV1", "result": ">−4.00"}, {"measurement": "Log10GI50", "setting": "MDA-MB-231/ATCC", "result": "−5.51"}, {"measurement": "Log10LC50", "setting": "MDA-MB-231/ATCC", "result": ">−4.00"}, {"measurement": "Log10TGI", "setting": "MDA-MB-231/ATCC", "result": ">−4.00"}, {"measurement": "Log10GI50", "setting": "OVCAR-8", "result": "−5.38"}, {"measurement": "Log10LC50", "setting": "OVCAR-8", "result": ">−4.00"}, {"measurement": "Log10TGI", "setting": "OVCAR-8", "result": ">−4.00"}, {"measurement": "sprouting", "setting": "HUVEC; 6 μM", "result": "sprouting was delayed for the first few days"}, {"measurement": "sprouting", "setting": "HUVEC; 10 μM", "result": "sprouting is inhibited"}]}
